Like-named read-outs stand apart in the source and are kept apart here.
What was measured:
[1] = tested on: SARS-CoV-2; experiment: Anti-SARS-CoV-2 activity (Calu3); assay type: cell-based
[2] = Cytotoxicity in PBM cells; assay type: cell-based; settings: human
Procedure: (§1) The toxicity of the compounds was assessed in Vero, human PBM, CEM (human lymphoblastoid), MT-2, and HepG2 cells, as described previously (see Schinazi R. F., Sommadossi J.-P., Saalmann V., Cannon D. L., Xie M.-Y., Hart G. C., Smith G. A. & Hahn E. F. Antimicrob. Agents Chemother. 1990, 34, 1061-67). Cycloheximide was included as positive cytotoxic control, and untreated cells exposed to solvent were included as negative controls. The cytotoxicity IC50 or CC50 was obtained from the concentration-response curve using the median effective method described previously (see Chou T.-C. & Talalay P. Adv. Enzyme Regul. 1984, 22, 27-55; Belen'kii M. S. & Schinazi R. F. Antiviral Res. 1994, 25, 1-11).

[3] = Cytotoxicity in CEM cells; assay type: cell-based; settings: human, CEM lymphoblastoid cells
Procedure: as §1

[4] = Cytotoxicity in Huh7 cells; assay type: cell-based; settings: human
[5] = tested on: SARS-CoV-2; experiment: Anti-SARS-CoV-2 activity, 3D primary culture (HAE-ALI); assay type: cell-based; settings: Severe acute respiratory syndrome coronavirus 2, air-liquid interface
[6] = tested on: SARS-CoV-2; experiment: Anti-SARS-CoV-2 activity, 3D primary culture (Organoids); assay type: cell-based
[7] = tested on: HCoV-OC43; experiment: Anti-HCoV-OC43 activity; assay type: cell-based
[8] = tested on: Omicron; experiment: Anti-Omicron activity (Calu-3); assay type: cell-based, SARS-CoV-2
[9] = tested on: Omicron; experiment: microbe, parasite or virus in culture; settings: for EC90: Severe acute respiratory syndrome coronavirus 2, Caco-2, read-out: Anti-Omicron Activity (Caco-2) EC90
[10] = tested on: SARS-CoV-2; experiment: Anti-SARS-CoV-2 activity (Vero); assay type: cell-based; settings: Severe acute respiratory syndrome coronavirus 2, MOI 0.1, 48 hr
[11] = Cytotoxicity in Vero cells; settings: African green monkey, Vero cells (kidney)
[12] = in vitro; settings: human
[13] = in vitro; settings: human, Caco-2
[14] = tested on: SARS-CoV-2; experiment: Anti-SARS-CoV-2 activity (Caco2); settings: Severe acute respiratory syndrome coronavirus 2, Caco-2, 72 h; for EC50: read-out: Anti-SARS-CoV-2 Activity (Caco2) EC50
[15] = tested on: HepG2 cells; experiment: Mitochondrial toxicity in HepG2 cells (MtDNA / rDNA); settings: Homo sapiens
[16] = tested on: mitochondrial DNA (COXII gene); experiment: as above; settings: human, HepG2 cells
[17] = tested on: rDNA (rRNA gene, nuclear reference); experiment: as above; settings: human, HepG2 cells
[18] = Severe acute respiratory syndrome coronavirus 2, Omicron, Calu-3, read-out: Anti-Omicron Activity (Calu-3) EC50
[19] = Severe acute respiratory syndrome coronavirus 2, Omicron, Calu-3, read-out: Anti-Omicron Activity (Calu-3) EC90
[20] = Severe acute respiratory syndrome coronavirus 2, Caco-2, read-out: Anti-Omicron Activity (Caco-2) EC50
[21] = Severe acute respiratory syndrome coronavirus 2, Calu-3, Calu3, MOI 1.0, 72 hr

CCC(CC)COC(=O)[C@H](C)N[P@](=O)(OC[C@H]1O[C@@](C#N)(c2ccc3c(N)ncnn23)[C@H](O)[C@@H]1O)Oc1ccccc1 [Remdesivir, reference compound]
EC50 ([1]; Severe acute respiratory syndrome coronavirus 2, Calu-3, 72 h): 0.1 µM | CC50 [2]: 6.4 µM | CC50 [3]: 12 µM | CC50 [4]: 1.5 µM | EC50 [5]: 0.6 µM | EC50 ([6]; Severe acute respiratory syndrome coronavirus 2, read-out: Anti-SARS-CoV-2 Activity (Organoids) EC50): 0.7 µM | EC90 ([6]; Severe acute respiratory syndrome coronavirus 2, 3D primary culture, organoids): 1.5 µM | EC50 ([7]; Betacoronavirus 1, OC43; read-out: Anti-HCoV-OC43 Activity EC50): 0.007 to 0.03 µM | EC90 ([7]; Betacoronavirus 1, OC43; read-out: Anti-HCoV-OC43 Activity EC90): 0.03 to 0.08 µM | EC50 [8, 18]: 0.2 to 0.3 µM | EC90 [8, 19]: 0.6 to 0.7 µM | EC50 [9, 20]: 0.05 µM | EC90 [9]: 0.4 µM

CC(C)OC(=O)[C@H](C)N[P@](=O)(OC[C@H]1S[C@@H](n2ccc(N)nc2=O)[C@H](O)[C@@H]1O)Oc1ccccc1 [Compound 16, Isopropyl ((S)-(((2R,3S,4R,5R)-5-(4-amino-2-oxopyrimidin-1(2H)-yl)-3,4-dihydroxytetrahydrothiophen-2-yl)methoxy)(phenoxy)phosphoryl)-L-alaninate]
EC50 [10]: > 10 µM | CC50 [2]: > 100 µM | CC50 [3]: > 100 µM | CC50 [4]: > 100 µM | CC50 [11]: > 100 µM

C[C@@H]1C[C@@H]([C@H](O)CC2CC(=O)NC(=O)C2)C(=O)[C@@H](C)C1 [cyclohexamide, Cycloheximide, reference compound]
CC50 [12]: 10 µM | CC50 [13]: 10 µM

Nc1ccn([C@@H]2S[C@H](CO)[C@@H](O)[C@H]2O)c(=O)n1 [Compound 9, 4-amino-1-((2R,3R,4S,5R)-3,4-dihydroxy-5-(hydroxymethyl)tetrahydrothiophen-2-yl)pyrimidin-2(1H)-one]
EC50 [10]: 0.2 µM | EC90 [10]: 4.5 µM | EC50 [1, 21]: 1.9 µM | EC90 [1, 21]: 3.9 µM | CC50 [2]: > 100 µM | CC50 [3]: 28 µM | CC50 [4]: 93.1 µM | CC50 [11]: 71.8 µM | EC50 [14]: 4.9 µM | EC90 ([14]; read-out: Anti-SARS-CoV-2 Activity (Caco2) EC90): > 10 µM

O=c1ccn([C@@H]2S[C@H](CO)[C@@H](O)[C@H]2O)c(=O)[nH]1 [Compound 8, 1-((2R,3R,4S,5R)-3,4-dihydroxy-5-(hydroxymethyl)tetrahydrothiophen-2-yl)pyrimidine-2,4(1H,3H)-dione]
EC50 [10]: 0.4 µM | EC90 [10]: 0.8 µM | EC90 [1, 21]: 3.5 µM | CC50 [2]: > 100 µM | CC50 [3]: 20.5 µM | CC50 [4]: > 100 µM | EC50 [5]: 0.04 µM | EC90 [5]: 0.1 µM | EC50 ([6]; Severe acute respiratory syndrome coronavirus 2, 3D primary culture, organoids, read-out: Anti-SARS-CoV-2 Activity (Organoids) EC50): 0.7 µM | EC50 ([7]; Betacoronavirus 1, OC43, read-out: Anti-HCoV-OC43 Activity EC50): 2.2 to 2.5 µM | EC90 ([7]; Betacoronavirus 1, OC43, read-out: Anti-HCoV-OC43 Activity EC90): 6.1 to 7.3 µM | EC50 ([8]; Severe acute respiratory syndrome coronavirus 2, Calu-3, read-out: Anti-Omicron Activity (Calu-3) EC50): 0.9 to 1.3 µM | EC90 ([8]; Severe acute respiratory syndrome coronavirus 2, Calu-3, read-out: Anti-Omicron Activity (Calu-3) EC90): 2.7 to 4.4 µM | CC50 [12]: > 100 µM | CC50 [13]: > 100 µM | CC50 [11]: 68.3 µM | EC50 [14]: 1.1 µM | EC50 [9, 20]: 8.2 µM | EC90 [9]: > 10 µM | inhibition at 100 µM ([15]; HepG2, read-out: inhibition of MtDNA at 100 μM): < 1% | inhibition at 100 µM ([15]; HepG2, read-out: inhibition of rDNA at 100 μM): 36.3% | CC50 at 7 days [16]: > 100 µM | CC50 at 7 days [17]: > 100 µM

O=c1nc(NO)ccn1[C@@H]1O[C@H](CO)[C@@H](O)[C@H]1O [NHC, N4-hydroxycytidine]
CC50 [3]: 2.6 µM | EC50 [8, 18]: 0.4 µM | EC90 [8, 19]: 1.2 µM | CC50 [11]: 16.5 µM | EC50 [9, 20]: > 10 µM | EC50 ([9]; Severe acute respiratory syndrome coronavirus 2, Caco-2, read-out: Anti-Omicron Activity (Caco-2) EC50, value in parentheses): 13.3 µM

CC(C)OC(=O)[C@H](C)N[P@](=O)(OC[C@H]1S[C@@H](n2ccc(=O)[nH]c2=O)[C@H](O)[C@@H]1O)Oc1ccccc1 [Compound 13, Isopropyl ((S)-(((2R,3S,4R,5R)-5-(2,4-dioxo-3,4-dihydropyrimidin-1(2H)-yl)-3,4-dihydroxytetrahydrothiophen-2-yl)methoxy)(phenoxy)phosphoryl)-L-alaninate]
EC50 [10]: > 10 µM | CC50 [2]: > 100 µM | CC50 [3]: > 100 µM | CC50 [4]: > 100 µM | CC50 [11]: > 100 µM

O=c1nc(NO)ccn1[C@@H]1S[C@H](CO)C(O)C1O (stereo in doubt) [Compound 17, 1-((2R,3S,4R,5R)-3,4-dihydroxy-5-(hydroxymethyl)-tetrahydrothiophen-2-yl)-4-(hydroxyamino) pyrimidin-2(1H)-one]
EC50 [10]: < 10 µM | EC50 [1, 21]: < 10 µM | CC50 [2]: > 100 µM | CC50 [4]: > 100 µM | CC50 [11]: > 100 µM

From patent publication US20240216413A1, “THIONUCLEOSIDES AS ANTIVIRAL AGENTS” (priority 2021, published 2024)
